Values quoted from earlier work, collected in patent US20140187520A1, “STABLE INJECTABLE PHARMACEUTICAL COMPOSITION OF VITAMIN D RECEPTOR AGONIST AND PROCESS FOR PREPARATION THEREOF” (PHARMATHEN S.A., priority 2012, published 2014).

For `C[C@H](/C=C/[C@H](C)C(C)(C)O)[C@H]1CC[C@H]2/C(=C/C=C3C[C@@H](O)C[C@H](O)C3)CCC[C@]12C` [paricalcitol, 19-nor-1α,3β,25-trihydroxy-9,10-secoergosta-5(Z),7(E), 22(E)-triene], the solubility in alcohol (alcohol) is listed as “soluble” and the solubility in water (water) is listed as “insoluble”.
